The nature of the data set: dissolution of ondansetron in hydroalcoholic solution. The format is physicochemical. Conditions: approximately 50° ethanol. Here is the method:
By way of example, the coefficient of dissolution of ondansetron in ethanol allows complete dissolution of said active ingredient at the rate of 2 milligrams (mg) of ondansetron per 0.75 milliliters (mL) of approximately 50° ethanol. This coefficient may be modulated as a function of the degree of alcohol and the water/ethanol ratio used.

In the case of `Cc1nccn1CC1CCc2c(c3ccccc3n2C)C1=O` (stereo not shown) [ondansetron], the “coefficient of dissolution (complete dissolution)” value is 2 mg per 0.75 mL.

These data come from US20110251233A1, “FORMULATION FOR THE BUCCAL TRANSMUCOSAL ADMINISTRATION OF SETRONS” (priority 2008, published 2011).
